Experimental data: PMC12374030, “Hydroxyalkyne–Bithiophene Derivatives: Synthesis and Antileishmanial Activity” (Chemical Biology & Drug Design, 2025)
*1 amine or outer side, *2 acyl side, *3 side chain or, on linkers, in order; H or OH if unused. Where a SMILES comes first, the peptide text is derived from it. Bridges are numbered along the chain shown (N, C = ends). Roman numbers before positions name the chains, in order. [ ]: non-standard residue; d: D form. Actinocin(9to1) = Cc1c2oc3c(C)ccc(C(=O)[*:1])c3nc-2c(C(=O)[*:2])c(N)c1=O; NMeV = CN[C@H](C(=O)O)C(C)C; Sar = CNCC(=O)O

What was measured:
[1] = test system: L. amazonensis promastigote forms; experiment: Antiproliferative assay (XTT); assay type: cell-based, Leishmania amazonensis; details: for IC50: Leishmania amazonensis, 72 h, 25°C, XTT, read-out: L. amazonensis (promastigotes) IC50; for Selectivity index (SI): ratio between the CC50 (J774A.1 macrophages) and IC50 (promastigotes)
Experimental: L. amazonensis MHOM/BR/75/Josefa strain was originally isolated from a human case of CL by Dr. […]. Cuba at the University of Brasilia, Brazil (Saraiva et al. [1983]; Cuba et al. [1985]). […] The activity against promastigotes was evaluated by XTT (0.5 mg mL^-1), as previously described (Meshulam et al. [1995]). Absorbance was read in a microplate spectrophotometer (PowerWave XS; BioTek, Winooski, VT, USA) at 450 nm.

[2] = Cytotoxicity assay in macrophages (MTT); assay type: cell-based; details: mouse, J774A.1 macrophages, pH 7.2
Experimental: L. amazonensis MHOM/BR/75/Josefa strain was originally isolated from a human case of CL by Dr. Cesar A. Cuba at the University of Brasilia, Brazil (Saraiva et al. [1983]; Cuba et al. [1985]). Promastigote forms of this strain were maintained axenically in Warren's medium (brain–heart infusion plus hemin and folic acid; pH 7.2) supplemented with 10% heat‐inactivated FBS and maintained at 25°C. J774A.1 macrophages (obtained from the Cell Bank of Rio de Janeiro, RJ, Brazil) were maintained in RPMI‐1640 medium (pH 7.2), supplemented with sodium bicarbonate, L‐glutamine, 10% FBS, and streptomycin and penicillin at 37°C in a 5% CO2 atmosphere.
Cytotoxicity was evaluated in the J774A.1 macrophages. Macrophages (5 × 10^5 cells mL^−1) were cultured in 96‐well microplates containing RPMI‐1640 medium supplemented with 10% FBS. The plates were incubated at 37°C in a 5% CO2 atmosphere for confluent growth of the cells. After 24 h, the compounds were added to each well at increasing concentrations (31.25–1000 μM) and incubated for 48 h at 37°C in a 5% CO2 atmosphere. The cytotoxicity was evaluated by MTT (2 mg mL^−1), as previously described (Mosmann [1983]). Absorbance was read in a microplate spectrophotometer (PowerWave XS; BioTek, […], VT, USA) at 570 nm.

[3] = test system: L. amazonensis promastigotes; experiment: Cell membrane integrity (PI, flow cytometry); assay type: cell-based, Leishmania amazonensis; details: positive control, 40 μM, 5 min
Experimental: Promastigotes at 1 × 10^6 parasites mL^−1 treated with BT‐1 for 24 h were incubated with 0.2 μg mL^−1 PI for 10 min. As a positive control, 40 μM digitonin was used. The data acquisition and analysis were performed using a FACSCalibur flow cytometer (BD Biosciences, Franklin Lakes, NJ, USA) equipped with CellQuest software. A total of 10,000 events were acquired in the region that corresponded to the parasites. Alterations in PI fluorescence were quantified as the percentage increase in fluorescence compared with the untreated parasites (Lazarin‐Bidóia et al. [2013]).

[4] = test system: L. amazonensis promastigotes; experiment: Cell cycle (PI-RNAse A, flow cytometry); assay type: cell-based, Leishmania amazonensis; details: positive control, 40 μM, 24 h
Experimental: Promastigotes at 1 × 10^6 parasites mL^−1 treated with BT‐1 for 24 h were fixed in 70% cold methanol in PBS at 4°C for 2 h. Afterward, the parasites were washed in PBS, 10 μg mL^−1 PI‐RNAse A was added, and the samples were incubated at 37°C for 45 min. The data acquisition and analysis were performed using a FACSCalibur flow cytometer (BD Biosciences, Franklin Lakes, NJ, USA) equipped with CellQuest software. A total of 10,000 events were acquired in the region that corresponded to the parasites. As a positive control, 40 μM miltefosine was used. The percentages of cells in each stage of the cell cycle were determined based on the intensity of the PI fluorescence, which is directly proportional to the DNA content.

[5] = test system: L. amazonensis promastigotes; experiment: Cell size (FSC-H, flow cytometry); assay type: cell-based, Leishmania amazonensis; design: reduction in cell size: dose or concentration left out as unconfirmed; details: positive control, 24 h
Experimental: Promastigotes at 1 × 10^6 parasites mL^−1 treated with BT‐1 for 24 h were washed twice and resuspended in phosphate‐buffered saline (PBS), then analyzed using a FACSCalibur flow cytometer (BD Biosciences, Franklin Lakes, NJ, USA) equipped with CellQuest software. As a positive control, […] actinomycin D was used. A total of 10,000 events were acquired in the region that corresponded to the parasites. Histograms were generated for each sample, where the forward light scatter (FSC‐H) represents the cell volume (Lazarin‐Bidóia et al. [2013]).

[6] = test system: L. amazonensis promastigotes; experiment: Reactive oxygen species production (H2DCFDA); assay type: cell-based, Leishmania amazonensis; details: positive control, 50 μM
Experimental: Promastigotes at 1 × 10^6 parasites mL^−1 treated with BT‐1 for 24 h were incubated with 10 μM H2DCFDA in the dark for 45 min. As a positive control, 50 μM H2O2 was used. The fluorescence was determined by oxidation of H2DCFDA to the fluorescent product, 2′‐7ʹ dichlorofluorescein (DCF), which was measured in a Victor X3 spectrofluorimeter (PerkinElmer, Waltham, MA, USA) at λex of 488 nm and λem of 530 nm (Shukla et al. [2012]).

[7] = test system: L. amazonensis promastigotes; experiment: Lipid peroxidation assay (DPPP); assay type: cell-based, Leishmania amazonensis; details: positive control, 50 μM
Experimental: Promastigotes at 1 × 10^6 parasites mL^−1 treated with BT‐1 for 24 h were incubated with 50 μM DPPP for 15 min at 22°C. As a positive control, 50 μM H2O2 was used. The fluorescence was determined in a Victor X3 spectrofluorimeter (PerkinElmer, Waltham, MA, USA) at λex of 355 nm and λem of 460 nm. DPPP is essentially nonfluorescent until it is oxidized to a phosphine oxide (DPPP‐O) by peroxides (Okimoto et al. [2000]).

[8] = test system: L. amazonensis promastigotes; experiment: Mitochondrial membrane potential (Rh123, flow cytometry); assay type: cell-based, Leishmania amazonensis; details: 24 h
Experimental: Promastigotes at 1 × 10^6 parasites mL^−1 treated with BT‐1 for 24 h were incubated with 5 μg mL^−1 Rh123, a fluorescent probe that accumulates in mitochondria, for 15 min (Menna‐Barreto, Corrêa, et al. [2009]; Menna‐Barreto, Goncalves, et al. [2009]). As a positive control, 100 μM CCCP was used. The data acquisition and analysis were performed using a FACSCalibur flow cytometer (BD Biosciences, Franklin Lakes, NJ, USA) equipped with CellQuest software. A total of 10,000 events were acquired in the region corresponding to the parasites.

Row | IC50 [1] [µM] | Compound | Selectivity index (SI) [1] | CC50 at 48 h [2] [µM] | other results
1 | 55.3 ± 5.1 | CCCCN=Cc1ccc(-c2ccc(C#CC(C)(C)O)s2)s1 [Compound 3b] | 5.34 | 296 ± 4.1 | 
2 | 39.5 ± 5.1 | CC(C)(O)C#Cc1ccc(-c2ccc(/C=N/NC(N)=S)s2)s1 [Compound 3d] | 5.56 | 220 ± 3.8 | 
3 | 40.1 ± 1.1 | CC(C)(O)C#Cc1ccc(-c2ccc(C=NC3CCCCC3)s2)s1 [Compound 3c] | 5.95 | 238.5 ± 1.9 | 
4 | 41.4 ± 0.6 | NC(=S)NN=Cc1ccc(-c2ccc(C#CCCO)s2)s1 [Compound 2d] | 5.42 | 224 ± 4.9 | 
5 | 51.2 ± 1.5 | OCCC#Cc1ccc(-c2ccc(C=NC3CCCCC3)s2)s1 [Compound 2c] | 5.28 | 271 ± 2.8 | 
6 | 44.1 ± 2 | CC(C)N=Cc1ccc(-c2ccc(C#CCCO)s2)s1 [Compound 2a] | 6.56 | 289 ± 6.5 | 
7 | 48.5 ± 4.2 | CCCCN=Cc1ccc(-c2ccc(C#CCCO)s2)s1 [Compound 2b] | 5.65 | 274 ± 5.2 | 
8 | 49.5 ± 3.1 | CC(C)N=Cc1ccc(-c2ccc(C#CC(C)(C)O)s2)s1 [Compound 3a] | 5.68 | 281 ± 6.2 | 

Further lines, the compound ahead of its results:

Row | Compound | IC50 [1] [µM] | Selectivity index (SI) [1] | CC50 at 48 h [2] [µM] | other results
9 | O=Cc1ccc(-c2ccc(C#CCCO)s2)s1 [Compound 2, 5′‐(4‐hydroxy‐but‐1‐ynyl)‐[2,2′]bithiophenyl‐5‐carbaldehyde] | 25.1 ± 0.8 | 7.90 | 198 ± 3.9 | 
10 | C[C@@H]1CC[C@@]2(OC1)O[C@H]1[C@@H](O)[C@H]3[C@@H]4CC[C@H]5C[C@@H](O[C@@H]6O[C@H](CO)[C@H](O[C@@H]7O[C@H](CO)[C@@H](O)[C@H](O[C@@H]8OC[C@@H](O)[C@H](O)[C@H]8O)[C@H]7O[C@@H]7O[C@H](CO)[C@H](O)[C@H](O[C@@H]8O[C@H](CO)[C@@H](O)[C@H](O)[C@H]8O)[C@H]7O)[C@H](O)[C@H]6O)[C@H](O)C[C@]5(C)[C@H]4CC[C@]3(C)[C@H]1[C@@H]2C [Digitonin, digitonin, reference compound] |  |  |  | increase of PI-stained cells [3]: 3.10 fold
11 | CCCCCCCCCCCCCCCCOP(=O)([O-])OCC[N+](C)(C)C [Miltefosine, miltefosine, reference compound] |  |  |  | increase of cells in sub-G0 phase compared with the untreated control [4]: 12.33 fold
12 | Cc1c2oc3c(C)ccc(C(=O)N[C@@H]4C(=O)N[C@H](C(C)C)C(=O)N5CCC[C@H]5C(=O)N(C)CC(=O)N(C)[C@@H](C(C)C)C(=O)O[C@@H]4C)c3nc-2c(C(=O)N[C@@H]2C(=O)N[C@H](C(C)C)C(=O)N3CCC[C@H]3C(=O)N(C)CC(=O)N(C)[C@@H](C(C)C)C(=O)O[C@@H]2C)c(N)c1=O [Actinomycin D, reference compound] (I: T[dV]P[Sar][NMeV] / II: T[dV]P[Sar][NMeV]; ester I:1-I:C, II:1-II:C; linker I:N-II:N via Actinocin(9to1)) |  |  |  | reduction in cell size [5]: 2.05 fold
13 | OO [Compound H2O2, reference compound] |  |  |  | increase in the production of ROS [6]: 3.5 fold; increase in lipoperoxidation [7]: 3.6 fold
14 | N#CC(C#N)=NNc1cccc(Cl)c1 [CCCP, carbonyl cyanide m‐chlorophenylhydrazone, reference compound] |  |  |  | Mitochondrial potential: Average (Median) ([8]; positive control 100 μM, Rh123 fluorescence): 6.38; reduction in the mitochondrial membrane potential ([8]; positive control, 100 μM): 342.8 fold
15 | CC(C)(O)C#Cc1ccc(-c2ccc(C=O)s2)s1 [Compound 3, 5′‐(3‐hydroxy‐3‐methyl‐but‐1‐ynyl)‐[2,2′]bithiophenyl‐5‐carbaldehyde] | 94 ± 4.2 | 3.00 | 283 ± 6.7 | 
